According to ChEMBL document CHEMBL1156950, “Synthesis and biological evaluation of 4-anilinoquinolines as potent inhibitors of epidermal growth factor receptor” (J Med Chem, 2010):
pIC50: −log10 of the molar value.

Columns and labels:
[1] = molecular target: Serine/threonine-protein kinase 26 (Homo sapiens) (UniProt Q9P289); assay: Inhibition of MST4 at 10 uM assessed as residual activity by [33P]ATP radioactive filter binding assay relative to control
[2] = molecular target: Serine/threonine-protein kinase PAK 2 (Homo sapiens) (UniProt Q13177); assay: Inhibition of PAK2 at 10 uM assessed as residual activity by [33P]ATP radioactive filter binding assay relative to control
[3] = test system: Lymphokine-activated killer T-cell-originated protein kinase; assay: Inhibition of PBK1 at 10 uM assessed as residual activity by [33P]ATP radioactive filter binding assay relative to control
[4] = molecular target: Epidermal growth factor receptor (Homo sapiens, UniProt P00533, L858R); assay: Inhibition of EGFR Leu858Arg mutant by HTRF assay; format: protein assay
[5] = molecular target: T1, Epidermal growth factor receptor (Homo sapiens, UniProt P00533); assay: Inhibition of wild type EGFR by HTRF assay
[6] = molecular target: Epidermal growth factor receptor (Homo sapiens, UniProt P00533, L858R/T790M); assay: Inhibition of EGFR Leu858Arg and Thr790Met mutant by HTRF assay; format: protein assay
[7] = molecular target: T1, Epidermal growth factor receptor; assay: Inhibition of 746-750 sequence deleted EGFR autophosphorylation in human PC9 cells after 24 hrs by immunoblotting; format: cell-based; conditions: PC-9
[8] = molecular target: Ribosomal protein S6 kinase beta-1 (Homo sapiens) (UniProt P23443); assay: Inhibition of S6K1 at 10 uM assessed as residual activity by [33P]ATP radioactive filter binding assay relative to control
Chain of Ribosomal protein S6 kinase beta-1 (Homo sapiens) (P23443 whole entry, looked up): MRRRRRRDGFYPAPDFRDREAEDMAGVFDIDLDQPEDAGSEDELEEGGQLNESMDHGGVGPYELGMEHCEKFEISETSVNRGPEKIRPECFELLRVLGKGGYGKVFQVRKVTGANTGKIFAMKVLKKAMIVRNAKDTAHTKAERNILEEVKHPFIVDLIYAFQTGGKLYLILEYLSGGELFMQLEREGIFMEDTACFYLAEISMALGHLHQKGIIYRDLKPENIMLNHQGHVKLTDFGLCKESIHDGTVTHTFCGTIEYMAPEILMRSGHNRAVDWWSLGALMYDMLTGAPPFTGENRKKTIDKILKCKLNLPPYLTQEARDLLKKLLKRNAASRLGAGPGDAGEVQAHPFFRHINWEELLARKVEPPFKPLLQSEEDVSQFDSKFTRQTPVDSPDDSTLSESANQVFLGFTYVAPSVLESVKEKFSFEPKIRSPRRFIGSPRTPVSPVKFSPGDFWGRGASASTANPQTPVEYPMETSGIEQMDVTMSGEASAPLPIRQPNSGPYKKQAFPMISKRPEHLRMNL

T1 sequence (P00533 whole entry): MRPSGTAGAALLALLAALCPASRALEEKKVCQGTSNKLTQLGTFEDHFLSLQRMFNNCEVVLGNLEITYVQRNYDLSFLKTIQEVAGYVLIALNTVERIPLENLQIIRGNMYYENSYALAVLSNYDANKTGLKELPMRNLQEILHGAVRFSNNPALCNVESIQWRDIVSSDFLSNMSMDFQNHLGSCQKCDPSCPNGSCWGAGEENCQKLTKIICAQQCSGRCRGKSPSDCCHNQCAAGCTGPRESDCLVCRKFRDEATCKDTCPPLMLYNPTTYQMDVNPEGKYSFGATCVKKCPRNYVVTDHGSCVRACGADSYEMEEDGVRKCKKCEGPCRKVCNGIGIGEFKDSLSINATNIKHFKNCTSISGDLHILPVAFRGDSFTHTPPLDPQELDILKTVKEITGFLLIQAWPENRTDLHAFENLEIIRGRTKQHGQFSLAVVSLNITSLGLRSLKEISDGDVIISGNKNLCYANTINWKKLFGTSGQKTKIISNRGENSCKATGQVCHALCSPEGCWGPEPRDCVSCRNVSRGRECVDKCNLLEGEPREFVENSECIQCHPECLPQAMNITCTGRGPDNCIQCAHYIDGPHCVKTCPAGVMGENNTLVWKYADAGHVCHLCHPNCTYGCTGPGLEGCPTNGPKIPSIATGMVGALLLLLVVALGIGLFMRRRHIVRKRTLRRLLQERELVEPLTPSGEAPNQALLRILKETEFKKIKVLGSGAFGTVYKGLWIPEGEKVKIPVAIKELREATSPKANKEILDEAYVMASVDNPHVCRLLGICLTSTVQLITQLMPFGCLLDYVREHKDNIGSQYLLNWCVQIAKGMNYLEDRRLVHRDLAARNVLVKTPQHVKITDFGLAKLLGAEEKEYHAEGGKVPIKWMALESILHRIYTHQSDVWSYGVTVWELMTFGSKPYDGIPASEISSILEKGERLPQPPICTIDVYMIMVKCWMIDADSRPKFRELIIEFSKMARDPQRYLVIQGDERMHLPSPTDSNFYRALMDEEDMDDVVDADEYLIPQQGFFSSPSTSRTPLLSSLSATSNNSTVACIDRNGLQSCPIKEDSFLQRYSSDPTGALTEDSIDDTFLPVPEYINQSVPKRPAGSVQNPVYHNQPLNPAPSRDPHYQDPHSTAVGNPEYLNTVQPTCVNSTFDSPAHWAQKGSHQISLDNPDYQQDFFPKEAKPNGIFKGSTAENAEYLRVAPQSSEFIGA
Chain of Serine/threonine-protein kinase PAK 2 (Homo sapiens) (Q13177 whole entry): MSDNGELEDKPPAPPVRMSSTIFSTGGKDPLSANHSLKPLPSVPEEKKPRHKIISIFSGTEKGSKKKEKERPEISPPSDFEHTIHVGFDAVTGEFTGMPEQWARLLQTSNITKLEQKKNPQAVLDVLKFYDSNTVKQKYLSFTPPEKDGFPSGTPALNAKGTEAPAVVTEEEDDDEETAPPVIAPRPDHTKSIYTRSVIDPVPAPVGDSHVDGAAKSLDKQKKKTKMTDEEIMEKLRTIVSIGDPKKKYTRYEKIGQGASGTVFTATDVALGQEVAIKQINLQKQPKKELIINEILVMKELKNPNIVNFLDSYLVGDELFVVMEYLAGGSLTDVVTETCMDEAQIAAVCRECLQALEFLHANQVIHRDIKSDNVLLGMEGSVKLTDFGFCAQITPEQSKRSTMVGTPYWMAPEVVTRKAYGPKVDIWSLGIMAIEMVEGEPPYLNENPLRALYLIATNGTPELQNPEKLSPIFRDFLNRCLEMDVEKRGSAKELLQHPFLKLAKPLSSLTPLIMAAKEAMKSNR
Chain of Epidermal growth factor receptor (Homo sapiens, UniProt P00533, L858R/T790M) (P00533 25-1210 T790M/L858R limits assumed): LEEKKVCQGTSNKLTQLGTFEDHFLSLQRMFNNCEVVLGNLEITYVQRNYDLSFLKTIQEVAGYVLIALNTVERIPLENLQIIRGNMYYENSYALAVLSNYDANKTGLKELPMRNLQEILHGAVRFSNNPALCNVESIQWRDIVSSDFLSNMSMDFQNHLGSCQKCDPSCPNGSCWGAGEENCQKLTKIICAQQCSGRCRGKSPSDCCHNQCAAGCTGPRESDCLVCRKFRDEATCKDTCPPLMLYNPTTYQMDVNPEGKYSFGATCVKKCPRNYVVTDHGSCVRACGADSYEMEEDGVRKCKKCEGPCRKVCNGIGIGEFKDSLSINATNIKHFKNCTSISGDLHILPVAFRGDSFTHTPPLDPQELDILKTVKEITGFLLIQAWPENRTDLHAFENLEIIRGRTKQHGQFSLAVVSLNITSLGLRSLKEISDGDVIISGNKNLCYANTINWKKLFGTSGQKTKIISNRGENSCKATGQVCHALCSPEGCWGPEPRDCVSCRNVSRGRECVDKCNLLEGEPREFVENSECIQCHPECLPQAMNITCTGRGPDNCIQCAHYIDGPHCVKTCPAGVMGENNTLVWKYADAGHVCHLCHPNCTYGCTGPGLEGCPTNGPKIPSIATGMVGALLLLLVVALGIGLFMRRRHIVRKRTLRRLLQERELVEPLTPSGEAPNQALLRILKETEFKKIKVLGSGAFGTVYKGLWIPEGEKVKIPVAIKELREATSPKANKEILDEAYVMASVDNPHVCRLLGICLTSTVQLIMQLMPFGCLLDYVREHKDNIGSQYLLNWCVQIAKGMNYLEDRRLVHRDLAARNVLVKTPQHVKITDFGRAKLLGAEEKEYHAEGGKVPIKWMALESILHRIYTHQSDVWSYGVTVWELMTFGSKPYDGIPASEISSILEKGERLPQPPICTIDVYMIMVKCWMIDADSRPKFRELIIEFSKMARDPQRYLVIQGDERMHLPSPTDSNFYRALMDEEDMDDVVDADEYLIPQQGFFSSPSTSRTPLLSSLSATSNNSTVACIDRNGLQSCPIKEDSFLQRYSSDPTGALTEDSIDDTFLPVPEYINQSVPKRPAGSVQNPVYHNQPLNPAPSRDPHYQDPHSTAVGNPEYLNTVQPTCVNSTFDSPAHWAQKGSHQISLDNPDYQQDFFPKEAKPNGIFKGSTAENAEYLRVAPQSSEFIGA
Chain of Serine/threonine-protein kinase 26 (Homo sapiens) (Q9P289 2-416 limits assumed): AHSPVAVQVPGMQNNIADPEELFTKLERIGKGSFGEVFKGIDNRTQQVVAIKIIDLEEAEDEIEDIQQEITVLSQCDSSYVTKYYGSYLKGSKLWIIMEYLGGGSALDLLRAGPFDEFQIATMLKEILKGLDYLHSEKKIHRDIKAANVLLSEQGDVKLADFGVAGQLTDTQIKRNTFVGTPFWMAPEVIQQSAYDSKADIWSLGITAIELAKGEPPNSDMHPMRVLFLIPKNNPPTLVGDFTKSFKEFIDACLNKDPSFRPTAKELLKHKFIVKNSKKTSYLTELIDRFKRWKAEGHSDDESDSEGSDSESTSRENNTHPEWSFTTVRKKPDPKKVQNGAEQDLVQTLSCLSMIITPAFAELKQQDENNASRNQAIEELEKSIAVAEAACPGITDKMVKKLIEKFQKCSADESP
Chain of Epidermal growth factor receptor (Homo sapiens, UniProt P00533, L858R) (P00533 25-1210 L858R limits assumed): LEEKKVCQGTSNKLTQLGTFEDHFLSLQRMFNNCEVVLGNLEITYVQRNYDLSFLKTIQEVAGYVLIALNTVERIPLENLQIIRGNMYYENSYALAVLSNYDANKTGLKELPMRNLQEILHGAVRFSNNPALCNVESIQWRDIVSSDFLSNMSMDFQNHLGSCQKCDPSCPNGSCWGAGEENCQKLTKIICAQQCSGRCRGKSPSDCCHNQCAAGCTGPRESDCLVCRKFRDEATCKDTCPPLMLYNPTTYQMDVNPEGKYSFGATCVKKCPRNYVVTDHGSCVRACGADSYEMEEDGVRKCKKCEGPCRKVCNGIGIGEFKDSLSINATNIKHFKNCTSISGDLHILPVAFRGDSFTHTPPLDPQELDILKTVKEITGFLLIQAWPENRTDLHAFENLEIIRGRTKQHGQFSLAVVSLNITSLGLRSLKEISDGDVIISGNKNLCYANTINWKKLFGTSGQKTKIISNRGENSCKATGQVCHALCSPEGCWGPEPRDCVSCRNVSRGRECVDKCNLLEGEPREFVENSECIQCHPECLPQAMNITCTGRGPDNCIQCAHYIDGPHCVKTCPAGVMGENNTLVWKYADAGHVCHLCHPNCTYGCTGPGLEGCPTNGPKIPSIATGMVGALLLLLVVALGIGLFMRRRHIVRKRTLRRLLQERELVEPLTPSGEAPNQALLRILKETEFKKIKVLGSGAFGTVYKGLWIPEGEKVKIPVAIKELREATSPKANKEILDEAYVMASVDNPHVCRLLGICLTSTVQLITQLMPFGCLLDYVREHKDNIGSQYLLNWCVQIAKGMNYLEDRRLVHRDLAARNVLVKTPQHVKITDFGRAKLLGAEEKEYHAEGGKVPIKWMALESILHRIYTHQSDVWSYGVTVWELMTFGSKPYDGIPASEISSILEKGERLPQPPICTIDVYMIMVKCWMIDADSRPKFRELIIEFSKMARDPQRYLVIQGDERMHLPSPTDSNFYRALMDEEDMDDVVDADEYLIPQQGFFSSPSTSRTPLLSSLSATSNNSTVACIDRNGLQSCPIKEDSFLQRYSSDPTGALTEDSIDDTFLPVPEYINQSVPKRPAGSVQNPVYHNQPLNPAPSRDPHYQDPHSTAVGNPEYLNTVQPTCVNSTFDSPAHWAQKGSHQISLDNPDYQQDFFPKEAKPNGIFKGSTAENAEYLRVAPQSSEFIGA

CN(C)CCCC(=O)Nc1ccc2nccc(Nc3cccc(Br)c3)c2c1
Activity [1]: 80% | Activity [2]: 79% | Activity [3]: 84% | pIC50 [4]: 9.30 | pIC50 [5]: 8.77 | pIC50 [6]: 6.89 | Activity [7]: Dose-dependent effect | Activity [8]: 87%
